One series has as its system human nasal mucosa cells. On the set-up: method as in PMID 23517602, PMID 25769976. Particulars: read-out: 50 % effective concentration (cytotoxicity); cited from earlier work.
Series [1] concerns bloodstream forms of T. brucei. The series can be described thus: Measurement of changes in cell volume by light scattering. Type of series: cell-based, Trypanosoma brucei. Particulars: 100 μM; 5 × 10^7 cells/ml; measured every 15 min; decrease in absorbance = increase in cell volume. On the procedure:
Change in cell volume was determined by light scattering as previously described. In brief, bloodstream forms of T. brucei were seeded at a density of 5 × 10^7 cells/ml in 96-well plates in a final volume of 200 μl culture medium containing 100 μM of salinomycin or the salonimycin derivatives SAL-E7 or SAL-AM2 and 1 % DMSO. Absorbance of the cultures was measured at 490 nm every 15 min. A decrease in absorbance corresponded to an increase in cell volume. The experiment was repeated three times.
Change in cell volume can be measured by light scattering at 450–550 nm whereby a decrease in absorbance indicates swelling of cells. In order to be able to record measurable absorbance changes, a high cell density is required. […] However, the derivatives caused a slightly faster swelling of the cells than salinomyicn. […] During further incubation, trypanosomes increased their cell volume but cell swelling was much slower and much less. […] However, it seems that the transport efficiency determines the trypanocidal potency of salinomycin derivatives.
Fig. 3 Effect of salinomycin derivatives on the cell volume of bloodstream forms of T. brucei. […] Every 15 min, the absorbance at 490 nm was measured. […] Note that a decrease in absorbance corresponds to an increase in cell volume

For series [2], the system named is Bloodstream forms of T. brucei (clone 427-221a). On the set-up: method as in PMID 23517602. Particulars: human cells vs bloodstream forms of T. brucei; cited from earlier work.
The subject of series [3] is human myeloid leukaemia HL-60 cells. The series can be described thus: Toxicity assay (resazurin, 72 h) on HL-60 cells. Type of series: cell-based. On the procedure:
(§1) Bloodstream forms of T. brucei (clone 427-221a) and human myeloid leukaemia HL-60 cells were grown in Baltz medium and RPMI medium, respectively. Both culture media were supplemented with 16.7 % (v/v) heat-inactivated foetal calf serum. All cultures were maintained in a humidified atmosphere containing 5 % CO2 at 37 °C.
(§2) Cells were seeded in 96-well plates in a final volume of 200 μl of their respective culture medium containing 10-fold serial dilutions of ionophore derivatives (10^-4 to 10^-10 M) and 1 % DMSO. Wells containing medium and 1 % DMSO served as controls. The initial cell densities were 1 × 10^4/ml for T. brucei and 1 × 10^5/ml for HL-60 cells. After 24 h incubation at 37 °C in a humidified atmosphere containing 5 % CO2, 20 μl of a 0.44 mM resazurin solution prepared in PBS was added and the cells were incubated for a further 48 h so that the total incubation time was 72 h. Thereafter, the plates were read on a microplate reader using a test wavelength of 570 nm and a reference wavelength of 630 nm. The 50 % growth inhibition (GI50) value, i.e. the concentration of a compound necessary to reduce the growth rate of cells by 50 % compared to the control was determined by linear interpolation according to the method described in [22]. The minimum inhibitory concentration (MIC) values, i.e. the concentration of the drug at which all trypanosome and human cells were killed, was determined microscopically. Each compound was independently tested three times.
For orientation: Resazurin is reduced to fluorescent resorufin, in cell work by metabolically active cells.

The subject of series [4] is human peripheral blood mononuclear cells. On the set-up: method as in PMID 23517602, PMID 25769976. The note with it: read-out: 50 % effective concentration (cytotoxicity); cited from earlier work.
Series [5] concerns Bloodstream forms of T. brucei (clone 427-221a). Put plainly: Toxicity assay (resazurin, 72 h) on bloodstream forms of T. brucei. Type of series: cell-based, Trypanosoma brucei. How it is done:
as §1, §2

Results on one compound are retold here after article PMC4972190, “In vitro activity of salinomycin and monensin derivatives against Trypanosoma brucei” (Parasites & Vectors, 2016).

≈ marks a conversion by molar mass, not a printed value.

One may read the MIC as the smallest concentration in the dilution series that meets the test's criterion for growth inhibition. A lower MIC goes with greater potency. Usually GI50 stands for the concentration that inhibits growth by half. Higher therefore signals lower sensitivity of the cells. As to `CC[C@@H](C(=O)[C@@H](C)[C@@H](O)[C@H](C)[C@@H]1O[C@@H]([C@@H](CC)C(=O)O)CC[C@@H]1C)[C@H]1O[C@]2(C=C[C@@H](O)[C@]3(CC[C@@](C)([C@H]4CC[C@](O)(CC)[C@H](C)O4)O3)O2)[C@H](C)C[C@@H]1C` [Salinomycin, salinomycin], the EC50 in the series on human nasal mucosa cells is 11 µM; in series [4], 30 µM. Besides, the “Effect on cell volume (absorbance at 490 nm)” value in series [1] is on record as “continued to swell until the end of experiment”. Further, the “selectivity (cytotoxic/trypanocidal ratio)” value in series [2] is listed as less than 100. In addition, the MIC in series [3] (HL-60 cells, 72 h, determined microscopically, mean of three experiments) was 1 µM (≈ 0.751 µg/mL); in series [5] (Trypanosoma brucei, 72 h, T. brucei bloodstream forms, concentration at which all cells were killed, determined microscopically, mean of three experiments), 1 µM (≈ 0.751 µg/mL). The GI50 came to 0.44 ± 0.21 µM in series [3] (Homo sapiens, HL-60, 72 h) and 0.18 ± 0.06 µM in series [5] (Trypanosoma brucei, 72 h). Further, the “Selectivity GI50 ratio” value in series [5] (GI50(HL-60)/GI50(T. brucei)) was found to be 2.4. The “Selectivity MIC ratio” value in series [5] (MIC(HL-60)/MIC(T. brucei)) is 1.
